Measurements published in patent US20200261485A1, “COMPOSITIONS COMPRISING 3'-O-GLUCURONIDE EPICATECHIN AND METHODS OF MAKING AND USING SUCH COMPOSITIONS” (NESTEC S.A., priority 2015, published 2020).
“Also recorded” adds a separate entry of the source.

How the values were obtained:
h-TRPA1 = molecular target: T1, h-TRPA1 (Homo sapiens, UniProt O75762); assay: Calcium imaging of activation of CHO cells expressing h-TRPA1; assay type: cell-based; conditions: for Activity vs hTRPA1: CHO cells expressing h-TRPA1; for TRPA1 agonism (result in words): activation of CHO cells expressing h-TRPA1, FIGS. 4, 6, 7
T1 construct: expressed in transfected cells; host or cells: CHO cells
Method: Specifically, the activation of CHO cells expressing h-TRPA1 was tested according to the calcium imaging method described in Riera et al. (Riera, C. E., Vogel, H., Simon, S. A., Damak, S., & le Coutre, J. Sensory attributes of complex tasting divalent salts are mediated by TRPM5 and TRPV1 channels. J. Neurosci. 29, 2654-2662 (2009)).

[1] = tested on: endothelial nitric oxide synthase; assay: Phosphorylation of endothelial nitric oxide synthase (western blot) in isolated aortic rat rings; assay type: cell-based; parameters: dose or concentration left out as unconfirmed; conditions: isolated Wistar rat aortic rings, 1 h incubation, FIG. 12
Method: Furthermore, comparative experiments were conducted on the expression of endothelial nitric oxide synthase in isolated aortic rat rings.
Thoracic aortas were obtained from male adults Wistar rats after euthanasia. Each aorta was carefully dissected and harvested cleaned of excess tissue and cut into three equal segments, approximately 7 mm long. All aortic rings were pre-incubated for 30 min in Krebs solution (20 mM Hepes buffer, pH 7.4, containing 119 mM NaCl, 4.7 mM KCl, 1 mM MgSO4, 0.4 mM NaH2PO4, 0.15 mM Na2HPO4, 5 mM NaHCO3, 1.25 mM CaCl2, 5.5 mM glucose) aerated with 95% O2 and 5% CO2 at 37° C. and then incubated with vehicle (DMSO 1%) or the different metabolites for 1 h. Metabolites were first dissolved in DMSO 1% and tested in a final concentration […]. At the end of the incubation period aortic rings were frozen at −70° C. until the homogenate preparation. Homogenates for western blot and western blot determinations were carried out by the regular procedures and phosphorylation level of endothelial nitric oxide synthase was evaluated.

[2] = concentration (max) tested 100 mM
[3] = concentration (max) tested 3 mM

T1 sequence (O75762 whole entry): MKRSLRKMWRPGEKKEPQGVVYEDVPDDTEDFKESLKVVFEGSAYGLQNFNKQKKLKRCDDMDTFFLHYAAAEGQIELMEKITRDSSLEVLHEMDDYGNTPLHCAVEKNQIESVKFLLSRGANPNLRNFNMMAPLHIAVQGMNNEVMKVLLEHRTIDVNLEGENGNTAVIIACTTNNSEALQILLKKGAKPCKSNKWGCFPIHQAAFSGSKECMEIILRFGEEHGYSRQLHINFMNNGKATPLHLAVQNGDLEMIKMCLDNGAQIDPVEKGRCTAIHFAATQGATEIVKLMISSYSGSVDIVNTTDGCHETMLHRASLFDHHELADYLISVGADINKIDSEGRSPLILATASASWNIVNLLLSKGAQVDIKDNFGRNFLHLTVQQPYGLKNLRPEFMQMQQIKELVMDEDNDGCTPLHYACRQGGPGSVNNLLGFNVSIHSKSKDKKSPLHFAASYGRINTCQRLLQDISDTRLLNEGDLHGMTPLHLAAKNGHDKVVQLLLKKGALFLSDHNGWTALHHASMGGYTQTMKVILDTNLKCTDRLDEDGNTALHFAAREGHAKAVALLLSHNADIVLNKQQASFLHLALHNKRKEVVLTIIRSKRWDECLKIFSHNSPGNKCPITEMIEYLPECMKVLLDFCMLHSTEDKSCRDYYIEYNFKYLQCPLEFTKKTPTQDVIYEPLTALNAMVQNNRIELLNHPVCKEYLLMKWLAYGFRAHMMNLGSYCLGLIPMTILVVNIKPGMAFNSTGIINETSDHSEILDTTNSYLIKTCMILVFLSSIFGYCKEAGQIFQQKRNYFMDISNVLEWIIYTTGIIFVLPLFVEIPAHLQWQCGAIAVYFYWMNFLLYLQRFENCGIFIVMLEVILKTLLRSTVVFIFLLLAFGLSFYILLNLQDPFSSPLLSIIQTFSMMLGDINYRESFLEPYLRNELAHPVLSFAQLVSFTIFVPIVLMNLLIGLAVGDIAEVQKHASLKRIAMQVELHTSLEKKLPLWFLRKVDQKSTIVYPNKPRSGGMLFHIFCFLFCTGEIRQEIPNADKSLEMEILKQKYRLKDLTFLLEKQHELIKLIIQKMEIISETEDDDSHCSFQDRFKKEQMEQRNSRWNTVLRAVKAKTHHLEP

`O=C(O)[C@H]1O[C@@H](Oc2cc([C@H]3Oc4cc(O)cc(O)c4C[C@H]3O)ccc2O)[C@H](O)[C@@H](O)[C@@H]1O` [3′-O-glucuronide epicatechin] was tested, and the “Activity vs hTRPA1” value (h-TRPA1; concentration (max) tested 133 mM) was “Active”, the “TRPA1 agonism (result in words)” value (h-TRPA1) was “is a TRPA1 agonist; also recorded: agonist of the cation channel of TRPA1” and the EC50 (h-TRPA1; activation of hTRPA1 in CHO cells) was ~80 mM. For the same molecule, the “Concentration dependence of activation of CHO cells expressing h-TRPA1” value (h-TRPA1; different concentrations, dose-response curve, FIGS. 10 and 11) was “activation occurs in a concentration-dependent manner” and the “eNOS phosphorylation relative to control and chemically similar epicatechins” value [1] was “increased eNOS phosphorylation”.
In the case of `COc1cc([C@H]2Oc3cc(O)cc(O)c3C[C@H]2O)ccc1O` [3′-O-methyl epicatechin], the “Activity vs hTRPA1” value (h-TRPA1; [2]) is reported as “Inactive”, the “TRPA1 agonism (result in words)” value (h-TRPA1) is reported as “is not a TRPA1 agonist; also recorded: not TRPA1 agonists” and the “TRPA1 agonism (result in words)” value (h-TRPA1; listed as 3′-methyl epicatechin) is reported as “not TRPA1 agonists”.
For `O=S(=O)(O)Oc1cc([C@H]2Oc3cc(O)cc(O)c3C[C@H]2O)ccc1O` [3′-O-sulfate epicatechin], the “Activity vs hTRPA1” value (h-TRPA1; [2]) was “Inactive” and the “TRPA1 agonism (result in words)” value (h-TRPA1) was “is not a TRPA1 agonist; also recorded: not TRPA1 agonists”.
For `COc1cc(C2Oc3cc(OS(=O)(=O)O)cc(O)c3CC2O)ccc1O` (stereo not drawn) [3′-methyl-7-sulfate-EC], the “Activity vs hTRPA1” value (h-TRPA1; [2]) was “Inactive”.
For `O=C(O)[C@H]1O[C@@H](Oc2ccc([C@H]3Oc4cc(O)cc(O)c4C[C@H]3O)cc2O)[C@H](O)[C@@H](O)[C@@H]1O` [4′-O-glucuronide epicatechin], the “eNOS phosphorylation relative to control and chemically similar epicatechins” value [1] was “increased eNOS phosphorylation”.
`COc1ccc(C2Oc3cc(O)cc(O)c3CC2O)cc1O` (stereo not drawn) [4′-methyl-EC] was tested, and the “Activity vs hTRPA1” value (h-TRPA1; [2]) was “Inactive”.
With `O=S(=O)(O)Oc1ccc(C2Oc3cc(O)cc(O)c3CC2O)cc1O` (stereo not drawn) [4′-sulfate-EC] the “Activity vs hTRPA1” value (h-TRPA1; [2]) was “Inactive”.
With `CC(C)c1ccc(NC(=O)Cn2cnc3c2c(=O)n(C)c(=O)n3C)cc1` [HC030031] the “Blockage of the activation of hTRPA1 by 3′-O-glucuronide epicatechin” value (h-TRPA1; selective hTRPA1 antagonist added, FIG. 9) was “blocked the activation of hTRPA1”.
In the case of `COc1ccc(C2CC(=O)c3c(O)cc(O)cc3O2)cc1O[C@@H]1O[C@H](C(=O)O)[C@@H](O)[C@H](O)[C@H]1O` (stereo partly drawn) [Hesperetin-3-O-Glucuronide], the “Activity vs hTRPA1” value (h-TRPA1; [3]) is reported as “Inactive”.
With Hesperetin-4-O-Glucuronide the “Activity vs hTRPA1” value (h-TRPA1; [3]) was “Inactive”.
Hesperetin-7-3-O-Glucuronide was tested, and the “Activity vs hTRPA1” value (h-TRPA1; [3]) was “Inactive”.
